Measured values published in patent US8952024B2, “Herbicidal pyrimidone derivatives” (E I du Pont de Nemours and Company, priority 2009, dated 2015).

These compounds were tested on galium (catchweed bedstraw, Galium aparine) (assay: Test B pre-/postemergence plant response). Conditions: 250 g ai/ha, Preemergence, 0 to 100 scale.
Type: in vivo
Outline: (§1)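 Seeds were sown in loam soil/sand blend and treated preemergence with compound in non-phytotoxic solvent mixture containing surfactant; postemergence sprays, same formulation, went onto plants 2 to 18 cm (1- to 4-leaf stage) in peat-based planting medium. Greenhouse 13 to 15 days, then visual rating versus untreated controls, 0 (no effect) to 100 (complete control).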
`Cc1ccc(F)cc1-n1c(-c2ccccc2)ncc(C(=O)C2=C(O)CCCC2=O)c1=O` [Compound 44] was tested, and the “Plant response rating, Galium” value was 98.

Same assay, conditions: Postemergence, 31 g ai/ha; 0 to 100 scale (0 no effect, 100 complete control)
In the case of `O=C1CCCC(O)=C1C(=O)c1cnc(-c2cccs2)n(C2CCCCC2)c1=O` [Compound 189], the “Plant response rating, Galium” value is reported as 20.
With `O=C1CCCC(O)=C1C(=O)c1cnc(-c2ccc(F)cc2)n(C2CCCCC2)c1=O` [Compound 197] the “Plant response rating, Galium” value was 75.
For `CCCn1c(-c2cccc(Cl)c2)ncc(C(=O)C2=C(O)CCCC2=O)c1=O` [Compound 190], the “Plant response rating, Galium” value was 50.
With `Cc1cc(-n2c(-c3cccc(F)c3)ncc(C(=O)C3=C(O)CCCC3=O)c2=O)ccc1F` [Compound 191] the “Plant response rating, Galium” value was 20.
With `O=C1CCCC(O)=C1C(=O)c1cnc(-c2cccc(F)c2)n(C2CCCCC2)c1=O` [Compound 187] the “Plant response rating, Galium” value was 20.
In the case of `Cc1ccc(Cl)cc1-n1c(-c2cccc(F)c2)ncc(C(=O)C2=C(O)CCCC2=O)c1=O` [Compound 184], the “Plant response rating, Galium” value is reported as 50.

Same assay, conditions: Postemergence, 62 g ai/ha; scale 0 to 100 (0 no effect, 100 complete control)
`O=C1CCCC(O)=C1C(=O)c1cnc(-c2ccc(F)cc2)n(C2CCCCC2)c1=O` [Compound 197] was tested, and the “Plant response rating, Galium” value was 75.
`Cc1cc(-n2c(-c3cccc(F)c3)ncc(C(=O)C3=C(O)CCCC3=O)c2=O)ccc1F` [Compound 191] was tested, and the “Plant response rating, Galium” value was 40.

Same assay, conditions: Postemergence, 125 g ai/ha; scale 0 to 100 (0 no effect, 100 complete control)
With `O=C1CCCC(O)=C1C(=O)c1cnc(-c2cccs2)n(C2CCCCC2)c1=O` [Compound 189] the “Plant response rating, Galium” value was 85.
In the case of `CCCn1c(-c2cccc(Cl)c2)ncc(C(=O)C2=C(O)CCCC2=O)c1=O` [Compound 190], the “Plant response rating, Galium” value is reported as 60.
In the case of `Cc1cc(-n2c(-c3cccc(F)c3)ncc(C(=O)C3=C(O)CCCC3=O)c2=O)ccc1F` [Compound 191], the “Plant response rating, Galium” value is reported as 60.
`O=C1CCCC(O)=C1C(=O)c1cnc(-c2cccc(F)c2)n(C2CCCCC2)c1=O` [Compound 187] was tested, and the “Plant response rating, Galium” value was 55.
For `Cc1ccc(Cl)cc1-n1c(-c2cccc(F)c2)ncc(C(=O)C2=C(O)CCCC2=O)c1=O` [Compound 184], the “Plant response rating, Galium” value was 60.

Same assay, conditions: Postemergence, 250 g ai/ha; scale 0 to 100 (0 no effect, 100 complete control); 13 to 15 days
`O=C1CCCC(O)=C1C(=O)c1cnc(-c2cccs2)n(C2CCCCC2)c1=O` [Compound 189] was tested, and the “Plant response rating, Galium” value was 85.
`O=C1CCCC(O)=C1C(=O)c1cnc(-c2ccc(F)cc2)n(C2CCCCC2)c1=O` [Compound 197] was tested, and the “Plant response rating, Galium” value was 80.
In the case of `CCCn1c(-c2cccc(Cl)c2)ncc(C(=O)C2=C(O)CCCC2=O)c1=O` [Compound 190], the “Plant response rating, Galium” value is reported as 85.
`Cc1cc(-n2c(-c3cccc(F)c3)ncc(C(=O)C3=C(O)CCCC3=O)c2=O)ccc1F` [Compound 191] was tested, and the “Plant response rating, Galium” value was 60.
With `O=C1CCCC(O)=C1C(=O)c1cnc(-c2cccc(F)c2)n(C2CCCCC2)c1=O` [Compound 187] the “Plant response rating, Galium” value was 85.
For `Cc1ccc(Cl)cc1-n1c(-c2cccc(F)c2)ncc(C(=O)C2=C(O)CCCC2=O)c1=O` [Compound 184], the “Plant response rating, Galium” value was 60.

Same assay, conditions: Preemergence, 31 g ai/ha; scale 0 to 100 (0 no effect, 100 complete control)
For `CCCc1ncc(C(=O)C2=C(O)CCCC2=O)c(=O)n1CC1CCCO1` (stereo not shown) [Compound 74], the “Plant response rating, Galium” value was 20.
In the case of `Cc1ccc(F)cc1-n1c(-c2ccccc2)ncc(C(=O)C2=C(O)CCCC2=O)c1=O` [Compound 44], the “Plant response rating, Galium” value is reported as 0.
`CCc1ccc(-n2c(-c3ccccc3)ncc(C(=O)C3=C(O)CCCC3=O)c2=O)cc1` [Compound 219] was tested, and the “Plant response rating, Galium” value was 75.
In the case of `CCc1ccccc1-n1c(-c2ccccc2)ncc(C(=O)C2=C(O)CCCC2=O)c1=O` [Compound 255], the “Plant response rating, Galium” value is reported as 0.

Same assay, conditions: Preemergence, 62 g ai/ha; scale 0 to 100 (0 no effect, 100 complete control)
`CCCc1ncc(C(=O)C2=C(O)CCCC2=O)c(=O)n1CC1CCCO1` (stereo not shown) [Compound 74] was tested, and the “Plant response rating, Galium” value was 30.
For `Cc1ccc(F)cc1-n1c(-c2ccccc2)ncc(C(=O)C2=C(O)CCCC2=O)c1=O` [Compound 44], the “Plant response rating, Galium” value was 65.
With `CCc1ccc(-n2c(-c3ccccc3)ncc(C(=O)C3=C(O)CCCC3=O)c2=O)cc1` [Compound 219] the “Plant response rating, Galium” value was 85.
In the case of `CCc1ccccc1-n1c(-c2ccccc2)ncc(C(=O)C2=C(O)CCCC2=O)c1=O` [Compound 255], the “Plant response rating, Galium” value is reported as 50.

Same assay, conditions: Preemergence, 125 g ai/ha; 0 to 100 scale
`Cc1ccc(F)cc1-n1c(-c2ccccc2)ncc(C(=O)C2=C(O)CCCC2=O)c1=O` [Compound 44] was tested, and the “Galium plant response rating” value was 65.

Same assay, conditions: Preemergence, 125 g ai/ha; scale 0 to 100, 0 no effect, 100 complete control
In the case of `CCCc1ncc(C(=O)C2=C(O)CCCC2=O)c(=O)n1CC1CCCO1` (stereo not shown) [Compound 74], the “Plant response rating, Galium” value is reported as 40.
For `CCc1ccc(-n2c(-c3ccccc3)ncc(C(=O)C3=C(O)CCCC3=O)c2=O)cc1` [Compound 219], the “Plant response rating, Galium” value was 98.
For `CCc1ccccc1-n1c(-c2ccccc2)ncc(C(=O)C2=C(O)CCCC2=O)c1=O` [Compound 255], the “Plant response rating, Galium” value was 60.

Same assay, conditions: Preemergence, 250 g ai/ha; 0 to 100 scale
`CCCc1ncc(C(=O)C2=C(O)CCCC2=O)c(=O)n1CC1CCCO1` (stereo not shown) [Compound 74] was tested, and the “Galium plant response rating” value was 98.
In the case of `CCc1ccc(-n2c(-c3ccccc3)ncc(C(=O)C3=C(O)CCCC3=O)c2=O)cc1` [Compound 219], the “Galium plant response rating” value is reported as 100.
In the case of `CCc1ccccc1-n1c(-c2ccccc2)ncc(C(=O)C2=C(O)CCCC2=O)c1=O` [Compound 255], the “Galium plant response rating” value is reported as 100.

The compounds below were run on sunflower (common oilseed sunflower, Helianthus annuus) (assay: Test B pre-/postemergence plant response). Conditions: 250 g ai/ha, Preemergence, 0 to 100 scale.
Type: in vivo
Outline: as §1
For `Cc1ccc(F)cc1-n1c(-c2ccccc2)ncc(C(=O)C2=C(O)CCCC2=O)c1=O` [Compound 44], the “Plant response rating, Sunflower” value was 80.

Same assay, conditions: Preemergence, 31 g ai/ha; scale 0 to 100 (0 no effect, 100 complete control)
In the case of `CCCc1ncc(C(=O)C2=C(O)CCCC2=O)c(=O)n1CC1CCCO1` (stereo not shown) [Compound 74], the “Plant response rating, Sunflower” value is reported as 0.
For `Cc1ccc(F)cc1-n1c(-c2ccccc2)ncc(C(=O)C2=C(O)CCCC2=O)c1=O` [Compound 44], the “Plant response rating, Sunflower” value was 10.
`CCc1ccc(-n2c(-c3ccccc3)ncc(C(=O)C3=C(O)CCCC3=O)c2=O)cc1` [Compound 219] was tested, and the “Plant response rating, Sunflower” value was 0.
In the case of `CCc1ccccc1-n1c(-c2ccccc2)ncc(C(=O)C2=C(O)CCCC2=O)c1=O` [Compound 255], the “Plant response rating, Sunflower” value is reported as 45.

Same assay, conditions: Preemergence, 62 g ai/ha; scale 0 to 100 (0 no effect, 100 complete control)
In the case of `CCCc1ncc(C(=O)C2=C(O)CCCC2=O)c(=O)n1CC1CCCO1` (stereo not shown) [Compound 74], the “Plant response rating, Sunflower” value is reported as 55.
In the case of `CCc1ccc(-n2c(-c3ccccc3)ncc(C(=O)C3=C(O)CCCC3=O)c2=O)cc1` [Compound 219], the “Plant response rating, Sunflower” value is reported as 45.
For `CCc1ccccc1-n1c(-c2ccccc2)ncc(C(=O)C2=C(O)CCCC2=O)c1=O` [Compound 255], the “Plant response rating, Sunflower” value was 60.

Same assay, conditions: Preemergence, 125 g ai/ha; 0 to 100 scale
In the case of `Cc1ccc(F)cc1-n1c(-c2ccccc2)ncc(C(=O)C2=C(O)CCCC2=O)c1=O` [Compound 44], the “Sunflower plant response rating” value is reported as 75.

Same assay, conditions: Preemergence, 125 g ai/ha; scale 0 to 100, 0 no effect, 100 complete control
For `CCCc1ncc(C(=O)C2=C(O)CCCC2=O)c(=O)n1CC1CCCO1` (stereo not shown) [Compound 74], the “Plant response rating, Sunflower” value was 70.
`CCc1ccc(-n2c(-c3ccccc3)ncc(C(=O)C3=C(O)CCCC3=O)c2=O)cc1` [Compound 219] was tested, and the “Plant response rating, Sunflower” value was 80.
For `CCc1ccccc1-n1c(-c2ccccc2)ncc(C(=O)C2=C(O)CCCC2=O)c1=O` [Compound 255], the “Plant response rating, Sunflower” value was 75.

Same assay, conditions: Preemergence, 250 g ai/ha; 0 to 100 scale
`CCCc1ncc(C(=O)C2=C(O)CCCC2=O)c(=O)n1CC1CCCO1` (stereo not shown) [Compound 74] was tested, and the “Sunflower plant response rating” value was 85.
With `CCc1ccc(-n2c(-c3ccccc3)ncc(C(=O)C3=C(O)CCCC3=O)c2=O)cc1` [Compound 219] the “Sunflower plant response rating” value was 85.
`CCc1ccccc1-n1c(-c2ccccc2)ncc(C(=O)C2=C(O)CCCC2=O)c1=O` [Compound 255] was tested, and the “Sunflower plant response rating” value was 90.

Same assay, conditions: Preemergence; 0 is no effect, 100 is complete control; rated after 13 to 15 days; application rate of this section not shown
For “5-[(2-hydroxy-6-oxo-1-cyclohexen-1-yl)carbonyl]-2,3-diphenyl-4(3H)-pyrimidinone [Compound 2]”, the “Sunflower plant response rating (0 to 100 scale)” value was 0.

Each compound was assayed on nightshade (eastern black nightshade, Solanum ptycanthum) (assay: Test B pre-/postemergence plant response). Conditions: 250 g ai/ha, Preemergence, 0 to 100 scale.
Type: in vivo
Outline: as §1
With `Cc1ccc(F)cc1-n1c(-c2ccccc2)ncc(C(=O)C2=C(O)CCCC2=O)c1=O` [Compound 44] the “Plant response rating, Nightshade” value was 100.

Same assay, conditions: Preemergence, 31 g ai/ha; scale 0 to 100 (0 no effect, 100 complete control)
`CCCc1ncc(C(=O)C2=C(O)CCCC2=O)c(=O)n1CC1CCCO1` (stereo not shown) [Compound 74] was tested, and the “Plant response rating, Nightshade” value was 85.
With `Cc1ccc(F)cc1-n1c(-c2ccccc2)ncc(C(=O)C2=C(O)CCCC2=O)c1=O` [Compound 44] the “Plant response rating, Nightshade” value was 95.
For `CCc1ccc(-n2c(-c3ccccc3)ncc(C(=O)C3=C(O)CCCC3=O)c2=O)cc1` [Compound 219], the “Plant response rating, Nightshade” value was 90.
With `CCc1ccccc1-n1c(-c2ccccc2)ncc(C(=O)C2=C(O)CCCC2=O)c1=O` [Compound 255] the “Plant response rating, Nightshade” value was 75.

Same assay, conditions: Preemergence, 62 g ai/ha; scale 0 to 100 (0 no effect, 100 complete control)
With `CCCc1ncc(C(=O)C2=C(O)CCCC2=O)c(=O)n1CC1CCCO1` (stereo not shown) [Compound 74] the “Plant response rating, Nightshade” value was 98.
With `Cc1ccc(F)cc1-n1c(-c2ccccc2)ncc(C(=O)C2=C(O)CCCC2=O)c1=O` [Compound 44] the “Plant response rating, Nightshade” value was 98.
`CCc1ccc(-n2c(-c3ccccc3)ncc(C(=O)C3=C(O)CCCC3=O)c2=O)cc1` [Compound 219] was tested, and the “Plant response rating, Nightshade” value was 98.
With `CCc1ccccc1-n1c(-c2ccccc2)ncc(C(=O)C2=C(O)CCCC2=O)c1=O` [Compound 255] the “Plant response rating, Nightshade” value was 90.

Same assay, conditions: Preemergence, 125 g ai/ha; 0 to 100 scale
`Cc1ccc(F)cc1-n1c(-c2ccccc2)ncc(C(=O)C2=C(O)CCCC2=O)c1=O` [Compound 44] was tested, and the “Nightshade plant response rating” value was 100.

Same assay, conditions: Preemergence, 125 g ai/ha; scale 0 to 100, 0 no effect, 100 complete control
For `CCCc1ncc(C(=O)C2=C(O)CCCC2=O)c(=O)n1CC1CCCO1` (stereo not shown) [Compound 74], the “Plant response rating, Nightshade” value was 98.
In the case of `CCc1ccc(-n2c(-c3ccccc3)ncc(C(=O)C3=C(O)CCCC3=O)c2=O)cc1` [Compound 219], the “Plant response rating, Nightshade” value is reported as 100.
In the case of `CCc1ccccc1-n1c(-c2ccccc2)ncc(C(=O)C2=C(O)CCCC2=O)c1=O` [Compound 255], the “Plant response rating, Nightshade” value is reported as 100.

Same assay, conditions: Preemergence, 250 g ai/ha; 0 to 100 scale
For `CCCc1ncc(C(=O)C2=C(O)CCCC2=O)c(=O)n1CC1CCCO1` (stereo not shown) [Compound 74], the “Nightshade plant response rating” value was 100.
In the case of `CCc1ccc(-n2c(-c3ccccc3)ncc(C(=O)C3=C(O)CCCC3=O)c2=O)cc1` [Compound 219], the “Nightshade plant response rating” value is reported as 100.
In the case of `CCc1ccccc1-n1c(-c2ccccc2)ncc(C(=O)C2=C(O)CCCC2=O)c1=O` [Compound 255], the “Nightshade plant response rating” value is reported as 100.
